Earlier results as cited in patent publication US20070148136A1, “Methods of using ammonia oxidizing bacteria” (priority 2003, published 2007).

Legend:
Settings in all cases: cited from earlier work
[1] = system: Nitrosospira sp. strain AV
N, multiformis = system: N, multiformis
N. mobilis = system: N. mobilis
N. europaea = system: N. europaea

CCCCCCCCCCC(C)c1ccc(S(=O)(=O)O)cc1 (stereo not shown) [4-(2-dodecyl)benzenesulfonic acid]
50% inhibitory concentration (IC50) [1]: 1 µg/mL (ppm) | 50% inhibitory concentration (IC50) (N, multiformis): 1 µg/mL (ppm) | 50% inhibitory concentration (IC50) (N. mobilis): 3 µg/mL (ppm) | 50% inhibitory concentration (IC50) (N. europaea): 5 µg/mL (ppm)
